The record followed here is patent US20250205229A1, “DRUG FOR TREATING OR PREVENTING CHARCOT-MARIE-TOOTH DISEASE” (Kyoto University, priority 2022, published 2025).

Where a name gives a salt, the structure may show the parent alone.

Test [1] concerns MFN2 gene. Nature of the test: Screening for MFN2 mRNA expression by qPCR in motor neurons derived from iPS cells of CMT patients with MFN2 mutations. The test is classed as cell-based, human. The following applies: relative to vehicle (DMSO) defined as 1, motor neurons having the mutated MFN2 gene, compound added on day 10, RNA extracted on day 12. An excerpt: (§1) iPS cells established according to the method described in NPL 3 were used. The iPS cells were derived from peripheral-blood mononuclear cells (PBMCs) from CMT2 patients with MFN2 gene mutations (CMT1 (R94Q) and CMT2 (H128Y)) and healthy subjects without MFN2 mutations (Healthy). A feeder-free medium was used to perform maintenance culture of the iPS cells.
(§2) mRNA was extracted, and mRNA expression levels of MFN1 and MFN2 were quantified by qPCR.
(§3) The overview of the screening method is shown in the upper left of FIG. 2. Constructs expressing Lhx3, Ngn2, and Isl1 under tetracycline induction were introduced into the iPS cells using PiggyBac vectors, whereby stable lines were generated. Doxycycline was added to the iPS cells, and the iPS cells were cultured for 7 days using a neuro-differentiation medium to generate motor neurons (Imamura et al. Sci Transl Med 2017). […]
(§4) Screening was performed to search for existing drugs that increase the expression levels of the MIFN1 gene or MFN2 gene using the motor neurons having the mutated MFN2 gene. […] The expression levels of the MFN1 gene and the MFN2 gene are expressed as relative values with the mRNA expression levels thereof when a vehicle (DMSO) was administered being defined as 1.
(In general: Quantitative PCR measures a nucleic acid by following its amplification.)

In test [2] the test system is MFN1 gene. Description: Screening for MFN1 mRNA expression by qPCR in motor neurons derived from iPS cells of CMT patients with MFN2 mutations. The following applies: relative to vehicle (DMSO) defined as 1, motor neurons having the mutated MFN2 gene, compound added on day 10, RNA extracted on day 12. The test is classed as cell-based, human.
Source text: as §1, §2, §3, §4

As to `CC[C@@H](CO)NC(=O)[C@@H]1C=C2c3cccc4[nH]cc(c34)C[C@H]2N(C)C1` [Methylergometrine Maleate, (6aR,9R)—N—((S)-1-hydroxybutan-2-yl)-7-methyl-4,6,6a,7,8,9-hexahydroindolo[4,3-fg]quinoline-9-carboxamide maleate], in test [1], the “Relative expression level of the MFN2 gene” value stood at 3.676. Moreover, the “Relative expression level of the MFN1 gene” value in test [2] is recorded as 2.007.
The like results for `CC(C)N=c1cc2n(-c3ccc(Cl)cc3)c3ccccc3nc-2cc1Nc1ccc(Cl)cc1` [Clofazimine, N,5-bis(4-chlorophenyl)-3-propan-2-yliminophenazin-2-amine] were, in that order, 1.197 and 1.889.
